Data published in US7338778B2, “Luminescent method for determining cell oxygen consumption” (Becton, Dickinson and Company, priority 1991, dated 2008).
In brackets after ≈: the same amount, converted by molar mass.

Assays:
Type in all cases: cell-based
[1] = test system: Ps. aeruginosa (BDMS Culture collection #N111); assay: Overnight microdilution antimicrobial susceptibility test (reference MIC); conditions: Pseudomonas aeruginosa
E. coli (ATCC #25922) [2] = assay: Effect of antibiotics on E. coli, Ru(DPP)3Cl2 indicator tray (Example 8); conditions: for susceptibility of E. coli by fluorescence counts: 4 hours; for Relative Fluorescence at 4 hrs.: 1×10^7 CFU/ml, 37° C.
Description: (§1) A 0.5 McFarland suspension of E. coli (ATCC #25922) in Broth A (see Example 1) was prepared using an A-Just nephelometer. […] The trays were incubated at 37° C. for 4 hours and their fluorescence measured in a Fluoroskan II fluorometer.
The fluorescent compound tris 4,7-diphenyl-1,10-phenanthroline ruthenium (II) chloride (Ru(DPP)3Cl2) was synthesized using the procedure of Watts and Crosby (J. Am.Chem. Soc. 93, 3184(1971)). A total of 3.6 mg of the compound was dissolved in 2.0 ml dimethyl sulfoxide (D-5879, Sigma Chemical, St. Louis, Mo.) and the resultant solution was then added slowly, with stirring, to 1300 ml silicone rubber forming solution (Water Based Emulsion #3-5024, Dow Corning, Midland, Mich.). A 35 microliter aliquot of the mixture was subsequently dispensed into each well of a 96 well, flat bottom, white microtiter tray (#011-010-7901, Dynatech, Chantilly, Va.), and the system was subsequently cured overnight in a low humidity (less than 25% RH), 60° C. incubator. After curing, the trays were washed by either soaking or by filling and emptying each well several times with each of the following reagents; a) absolute ethanol, b) 0.1 M phosphate buffer pH 7.2, c) hot distilled water (about 45° C.) and d) ambient temperature distilled water.

[3] = test system: Ps. aeruginosa (BDMS Culture collection #N111); assay: Visual reading of indicator tray fluorescence without a fluorometer (Example 13); conditions: 1×10^7 CFU/ml, 4 hours at 37° C., UV transilluminator
Description: (§2) The trays were incubated for 4 hours at 37° C. and subsequently placed on the stage of an ultraviolet transilluminator (#TX-365A, Spectronics Corp., Westbury, N.Y.) which served as an excitation source.

E. coli (ATCC #25922) [4] = assay: as above; conditions: E. coli #25922, 1×10^7 CFU/ml, 4 hours at 37° C., UV transilluminator
Description: as §2

E. coli (ATCC #25922) [5] = assay: Overnight microdilution antimicrobial susceptibility test (reference MIC); conditions: Escherichia coli, ATCC25922; E. coli #25922, overnight microdilution
E. coli (ATCC #25922) [6] = assay: Effect of antibiotics on oxygen consumption of E. coli, DPA indicator tray (Example 10); conditions: for susceptibility of E. coli by fluorescence counts: 4 hours; for Relative Fluorescence at 4 hrs.: 1×10^7 CFU/ml, 37° C.
E. coli (ATCC #25922) [7] = assay: Effect of antibiotics on oxygen consumption of E. coli, Ru(BiPy)3Cl2 indicator tray (Example 9); conditions: for susceptibility of E. coli by fluorescence counts: 4 hours; for Relative Fluorescence at 4 hrs.: 1×10^7 CFU/ml, 37° C.
Description: A 96 well Microtiter tray was produced essentially as in Example 1, except that tris-(2,2′ bipyridyl)-ruthenium (II) chloride hexahydrate (Aldrich Chemical Company, Milwaukee, Wis.) [Ru(BiPy)3Cl2] was substituted for Ru(DPP)3Cl2 in the silicone mixture. A second tray containing 9,10-diphenyl anthracene (DPA) was also prepared. All wells were charged with 150 ul of 1×10^7 CFU/ml E. coli (ATCC #25922) in broth. Table 3 lists the results at 0, 1, 2, 3, and 4 hours after addition of organisms.
as §1

E. coli (ATCC #11775) = assay: Effect of open and closed systems on oxygen measurements with cefuroxime (Example 11); conditions: 4 and 8 ug/ml, 5 hours, 37° C.
Description: A 96 well indicator microtiter tray was produced substantially as in Example 1. Duplicate wells in the tray were supplemented with the antibiotic cefuroxime in the concentration range of 0.25 to 32 ug/ml. One hundred and fifty microliters of a suspension of E. coli (ATCC #11775) was added to the wells to yield about 3×10^7 CFU/ml. One of each duplicate well was overlaid with mineral oil to inhibit diffusion of oxygen into the wells, the other duplicate was left open to the air. […] This difference is due, presumably to the time lag needed for the antibiotic to affect the organism; it is believed that during this time the oxygen is brought to an artificially low level by the ongoing metabolic activity of the organisms.

[8] = all concentrations (0.5 to 8 ug/ml)

## CO[C@@]1(NC(=O)Cc2cccs2)C(=O)N2C(C(=O)O)=C(COC(N)=O)CS[C@@H]21 [Cefoxitin, cefoxitin]
[1]
  MIC: > 64 µg/mL
E. coli (ATCC #25922) [2]; 0.5, 1, and 2 ug/ml
  susceptibility of E. coli by fluorescence counts: resistant
E. coli (ATCC #25922) [2]; 4 and 8 ug/ml
  susceptibility of E. coli by fluorescence counts: sensitive
E. coli (ATCC #25922) [2]; antibiotic 0.5 ug/mL
  Relative Fluorescence at 4 hrs.: 8181
E. coli (ATCC #25922) [2]; antibiotic 1 ug/mL
  Relative Fluorescence at 4 hrs.: 8270
E. coli (ATCC #25922) [2]; antibiotic 2 ug/mL
  Relative Fluorescence at 4 hrs.: 7120
E. coli (ATCC #25922) [2]; antibiotic 4 ug/mL
  Relative Fluorescence at 4 hrs.: 3692
E. coli (ATCC #25922) [2]; antibiotic 8 ug/mL
  Relative Fluorescence at 4 hrs.: 2974
[3]
  MIC Visual (lowest concentration of antibiotic to significantly lower the fluorescent emissions): >64 µg/mL
E. coli (ATCC #25922) [4]
  MIC Visual (lowest concentration of antibiotic to significantly lower the fluorescent emissions): 8 µg/mL
E. coli (ATCC #25922) [5]
  MIC: 4 µg/mL (≈ 9.36 µM)
E. coli (ATCC #25922) [6]; 0.5, 1, 2 ug/ml
  susceptibility of E. coli by fluorescence counts: resistant
E. coli (ATCC #25922) [6]; 4 and 8 ug/ml
  susceptibility of E. coli by fluorescence counts: sensitive
E. coli (ATCC #25922) [6]; antibiotic 0.5 ug/mL
  Relative Fluorescence at 4 hrs.: 192
E. coli (ATCC #25922) [6]; antibiotic 1 ug/mL
  Relative Fluorescence at 4 hrs.: 173
E. coli (ATCC #25922) [6]; antibiotic 2 ug/mL
  Relative Fluorescence at 4 hrs.: 164
E. coli (ATCC #25922) [6]; antibiotic 4 ug/mL
  Relative Fluorescence at 4 hrs.: 101
E. coli (ATCC #25922) [6]; antibiotic 8 ug/mL
  Relative Fluorescence at 4 hrs.: 95
E. coli (ATCC #25922) [7]; 0.5, 1, and 2 ug/ml
  susceptibility of E. coli by fluorescence counts: resistant
E. coli (ATCC #25922) [7]; 4 and 8 ug/ml
  susceptibility of E. coli by fluorescence counts: sensitive
E. coli (ATCC #25922) [7]; antibiotic 0.5 ug/mL
  Relative Fluorescence at 4 hrs.: 1171
E. coli (ATCC #25922) [7]; antibiotic 1 ug/mL
  Relative Fluorescence at 4 hrs.: 1491
E. coli (ATCC #25922) [7]; antibiotic 2 ug/mL
  Relative Fluorescence at 4 hrs.: 1338
E. coli (ATCC #25922) [7]; antibiotic 4 ug/mL
  Relative Fluorescence at 4 hrs.: 832
E. coli (ATCC #25922) [7]; antibiotic 8 ug/mL
  Relative Fluorescence at 4 hrs.: 559

## CO/N=C(\C(=O)N[C@@H]1C(=O)N2C(C(=O)O)=C(COC(N)=O)CS[C@H]12)c1ccco1 [Cefuroxime, cefuroxime]
[1]
  MIC: > 64 µg/mL
E. coli (ATCC #25922) [2]; [8]
  susceptibility of E. coli by fluorescence counts: resistant
E. coli (ATCC #25922) [2]; antibiotic 0.5 ug/mL
  Relative Fluorescence at 4 hrs.: 7902
E. coli (ATCC #25922) [2]; antibiotic 1 ug/mL
  Relative Fluorescence at 4 hrs.: 7983
E. coli (ATCC #25922) [2]; antibiotic 2 ug/mL
  Relative Fluorescence at 4 hrs.: 7161
E. coli (ATCC #25922) [2]; antibiotic 4 ug/mL
  Relative Fluorescence at 4 hrs.: 7598
E. coli (ATCC #25922) [2]; antibiotic 8 ug/mL
  Relative Fluorescence at 4 hrs.: 6469
[3]
  MIC Visual (lowest concentration of antibiotic to significantly lower the fluorescent emissions): >64 µg/mL
E. coli (ATCC #25922) [4]
  MIC Visual (lowest concentration of antibiotic to significantly lower the fluorescent emissions): 16 µg/mL
E. coli (ATCC #25922) [5]
  MIC: 8 µg/mL (≈ 18.9 µM)
E. coli (ATCC #11775); closed system overlaid with mineral oil
  effect on oxygen consumption by fluorescence as percent of growth control: did not show an effect on oxygen consumption
E. coli (ATCC #11775); wells with no mineral oil (open to air)
  susceptibility of organism by fluorescence as percent of growth control: sensitive
E. coli (ATCC #25922) [6]; [8]
  susceptibility of E. coli by fluorescence counts: resistant
E. coli (ATCC #25922) [6]; antibiotic 0.5 ug/mL
  Relative Fluorescence at 4 hrs.: 183
E. coli (ATCC #25922) [6]; antibiotic 1 ug/mL
  Relative Fluorescence at 4 hrs.: 197
E. coli (ATCC #25922) [6]; antibiotic 2 ug/mL
  Relative Fluorescence at 4 hrs.: 195
E. coli (ATCC #25922) [6]; antibiotic 4 ug/mL
  Relative Fluorescence at 4 hrs.: 160
E. coli (ATCC #25922) [6]; antibiotic 8 ug/mL
  Relative Fluorescence at 4 hrs.: 161
E. coli (ATCC #25922) [7]; [8]
  susceptibility of E. coli by fluorescence counts: resistant
E. coli (ATCC #25922) [7]; antibiotic 0.5 ug/mL
  Relative Fluorescence at 4 hrs.: 1155
E. coli (ATCC #25922) [7]; antibiotic 1 ug/mL
  Relative Fluorescence at 4 hrs.: 1539
E. coli (ATCC #25922) [7]; antibiotic 2 ug/mL
  Relative Fluorescence at 4 hrs.: 1183
E. coli (ATCC #25922) [7]; antibiotic 4 ug/mL
  Relative Fluorescence at 4 hrs.: 1170
E. coli (ATCC #25922) [7]; antibiotic 8 ug/mL
  Relative Fluorescence at 4 hrs.: 1194
